Data set [1] in a line: Cloud point of the surfactant. The class given is physicochemical.
For data set [2], the system named is sang humain. The data set can be described thus: In vitro haemocompatibility: direct action on blood, overall observation. How it is done:
On a recherché si les microémulsions selon l'invention avaient une action sur le sang humain en effectuant un thromboélastogramme, en mesurant le temps de thrombine diluée et en évaluant l'hémolyse.
(§1) • le sang humain était du sang de sujets normaux, prélevé le jour de l'essai, en flacon siliconé, et sur citrate à 9 %, dans le rapport du 1/20; • les produits (microémulsions ou témoin) mis en présence de ce sang, en proportions variables, ont permis, après 10 minutes d'incubation à la température du laboratoire, de pratiquer un thromboélastogramme sur sang total, afin de mettre en évidence une action éventuelle sur la coagulation globale selon le mode opératoire décrit par C. RABY dans Biologie des Hémorragies et des Thromboses 1 vol., Masson et Cie, Edit. Paris 1966, p. 187; • un temps de thrombine diluée a été effectué sur les plasmas des sangs ayant été en contact avec les microémulsions selon l'invention pendant 30 minutes à la température du laboratoire selon le mode opératoire décrit par C. RABY à la page 119 de l'ouvrage cité ci-dessus.
(§2) Cette émulsion, mise en présence de quatre échantillons de sang humain, à raison de 0,1 ml pour 0,9 ml de sang, a permis d'effectuer les essais définis ci-dessus.

Data set [3] has as its system sang humain. The data set can be described thus: Thromboelastogram on whole blood. To be noted: after recalcification, emulsion with ethanol, 10 minutes incubation. Here is the method: as §1, §2
Data set [4] in a line: Solubility and dispersion of the surfactant in physiological saline. The class given is physicochemical. Here is the method: A des fins de comparaison, on a également utilisé les microémulsions ci-dessus d'une part en présence d'éthanol et d'autre part en l'absence d'éthanol.
En présence d'éthanol (VN), une solution limpide a été obtenue avec l'agent tensio-actif. Celle-ci, ajoutée dans les proportions de 0,2 ml à 1,8 ml d'eau physiologique, a donné, après agitation, une émulsion laiteuse, instable, s'éclaircissant en 15 minutes environ, tant à la température du laboratoire qu'à 37 °C.

Data set [5] concerns sang humain. The data set can be described thus: Haemolysis evaluated on plasma after centrifugation. It counts as cell-based. To be noted: plasma after centrifugation of blood at 2 000 g for 15 minutes. How it is done: as §1
L'hémolyse a été évaluée sur ces plasmas après centrifugation du sang à 2 000 g pendant 15 minutes.

Data set [6] has as its system sang humain. The data set can be described thus: Diluted thrombin time on plasma of blood put in contact with the products. It counts as biochemical. Particulars: summary. Here is the method: as §1
Dans la détermination du temps de thrombine on a utilisé de l'eau physiologique comme témoin.

The mark [7] stands for this setting: emulsion with ethanol, 0,1 ml for 0,9 ml blood.
The mark [8] stands for this setting: ethanol solution, 0,2 ml in 1,8 ml eau physiologique, laboratory temperature and 37 °C.

This note sets out measurements from patent EP0063149B1, “AQUEOUS FLUOROCARBIDE EMULSIONS INDEFINITELY STABLE AT A GIVEN TEMPERATURE, PROCESS FOR OBTAINING THEM AND APPLICATIONS” (Etablissement Public dit: CENTRE NATIONAL DE LA RECHERCHE …, priority 1980, dated 1982).

Where only a bound is given, the exact number is not on record here.

For the compound `OCCOCCOCCOCCOCCOCCOCC(F)(F)C(F)(F)C(F)(F)C(F)(F)C(F)(F)C(F)(F)C(F)(F)F` [C7F15CH2(OC2H4)6OH], the point de trouble in data set [1] was < 0 °C. For the same compound, in data set [2] (setting [7]), the “action directe sur du sang normal” value was “Aucune action directe” and the fluidité result is “n'a pas été altérée”. Also, the “effet in vitro sur le sang humain, non coagulé” value in data set [2] (summary) is on record as “sans effet”. Moreover, in data set [3], the “amplitude « amx »” value is listed as “diminution”, the “constante « r »” value is on record as “léger raccourcissement” and the “« k” value is given as “allongement”. In addition, the “soluble dans les solutés physiologiques” value in data set [4] is given as “n'est pas soluble”. Also, in data set [4] (setting [8]), the “stabilité de l'émulsion” value is reported as “instable” and the “temps d'éclaircissement de l'émulsion” value was ~15 min. In data set [5], the hémolyse result was “aucune trace”. Also, the hémolyse result in data set [5] (listed as agent tensio-actif seul) is reported as “absence”. The “activité semblable à la thrombine” value in data set [6] is reported as “ne produisent pas”.
